Experimental findings from ChEMBL document CHEMBL1641552 (Bioorg Med Chem Lett, 2011) are described below.

In test [1] the target is T1, Neuraminidase (Influenza A virus, UniProt B4URF0). The test is described as follows: Inhibition of Influenza A H1N1 virus neuraminidase activity after 2 hrs by spectrofluorometry.
For test [2], the target named is T1, Neuraminidase. The test is described as follows: Inhibition of Influenza A H9N2 virus neuraminidase activity after 2 hrs by spectrofluorometry.
Test [3] deals with T1, Neuraminidase. Kind of test: Noncompetitive inhibition of Influenza A H1N1 virus neuraminidase activity by Lineweaver-Burk plot analysis.
Another test has as its target T2, Sialidase (Clostridium perfringens, UniProt P10481).
T2 sequence (P10481 whole entry): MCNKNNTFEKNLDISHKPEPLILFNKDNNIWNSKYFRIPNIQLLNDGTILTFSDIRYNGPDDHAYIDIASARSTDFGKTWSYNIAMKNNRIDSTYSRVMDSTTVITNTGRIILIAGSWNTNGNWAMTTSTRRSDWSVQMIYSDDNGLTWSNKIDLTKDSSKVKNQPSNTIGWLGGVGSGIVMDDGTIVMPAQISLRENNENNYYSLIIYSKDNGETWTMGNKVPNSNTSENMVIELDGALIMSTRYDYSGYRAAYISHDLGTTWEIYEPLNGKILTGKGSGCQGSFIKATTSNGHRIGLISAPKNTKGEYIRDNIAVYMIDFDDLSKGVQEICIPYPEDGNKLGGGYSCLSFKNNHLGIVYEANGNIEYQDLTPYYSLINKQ
Kind of test: Inhibition of Clostridium perfringens neuraminidase.

The target in test [4] is T1, Neuraminidase. In kind it is cell-based, H1N1 swine influenza virus, HEK-293T.

SMILES strings stand for the structures. pIC50: −log10 of the molar value.

As a reminder, the pIC50 is the IC50 on a negative log10 scale, so that one unit is a factor of ten. Low readings indicate a high IC50, high ones a low IC50. On to `CC(C)=CCc1cc(/C=C/C(=O)c2ccc(O)cc2O)ccc1O` [LICOAGROCHALCONE A], for which the pIC50 is 3.80 against Neuraminidase [1], 3.76 against Neuraminidase [2], 3.73 on Neuraminidase [3] and 5.80 against Sialidase.
On the same counts, the results for `COc1c(/C=C/C(=O)c2ccc(O)c(CC=C(C)C)c2)ccc(O)c1O` [LICOCHALCONE D] are 4.09, 4.00, 3.99 and 5.48.
As to `COc1cc(O)ccc1/C=C/C(=O)c1ccc(O)cc1` [ECHINATIN], the pIC50 against Neuraminidase [1] was 4.67; against Neuraminidase [4], 5.04; against Neuraminidase [2], 4.68; at Neuraminidase [3], 4.52.
For the molecule `C=CC(C)(C)c1cc(/C=C/C(=O)c2ccc(O)cc2O)c(OC)cc1O` [LICOCHALCONE G], the pIC50 on Neuraminidase [1] is 3.97; against Neuraminidase [2], 3.93; at Neuraminidase [3], 3.93; against Sialidase, 5.63.
For the molecule `C=CC(C)(C)c1cc(/C=C/C(=O)c2ccc(O)cc2)c(OC)cc1O` [LICOAGROCHACONE A], the pIC50 is 4.25 at Neuraminidase [1]; 4.80 at Neuraminidase [4]; 4.27 on Neuraminidase [2]; 4.27 on Neuraminidase [3]; 4.69 against Sialidase.
In the case of `CC(C)=CCc1cc(/C=C/C(=O)c2ccc(O)cc2O)cc(O)c1O` [5'-PRENYLBUTEIN], the pIC50 at Neuraminidase [1] was 4.12; on Neuraminidase [2], 3.98; at Neuraminidase [3], 4.02; on Sialidase, 5.03.
In turn, `O=C(/C=C/c1ccc(O)cc1)c1ccc(O)cc1O` [ISOLIQUIRITIGENIN] gave a negative-log IC50 (pIC50) at Sialidase of 4.36.
Regarding `CC(C)=CCc1cc(/C=C/C(=O)c2ccc(O)c(CC=C(C)C)c2O)ccc1O` [KANZONOL C], the pIC50 against Neuraminidase [1] was 3.72; on Neuraminidase [2], 3.87; on Neuraminidase [3], 3.67; against Sialidase, 5.95.
